These results are taken from US20260248717A1, “METHOD OF TREATING LOWER TRACT UROTHELIAL CANCER” (TARIS Biomedical LLC, priority 2016, published 2026).

Data set [1] is described as follows: Comparison of urine gemcitabine and dFdU between minipig study and human phase IB study. It counts as in vivo. To be noted: for urine concentrations: mini pig study versus human phase IB study (FIG. 10).
For data set [2] the following is noted: in vivo.
Procedure: The ongoing Phase 1b study, TAR-200-101, is designed to evaluate the safety and tolerability of up to 2 dose cycles of gemcitabine administered intravesicularly at a dose of 225 mg for 7 days separated by a rest period of 14 days using the GemRIS system, over a 28-day period in patients with confirmed muscle-invasive transitional cell carcinoma of the bladder (>/=clinical and pathologic stage pT2a), who are scheduled to undergo radical cystectomy (RC) with concomitant lymphadenectomy.
Gemcitabine Releasing Intravesical System (GemRIS) is placed into the bladder through an inserter on Study Day 0 and is removed on Study Day 7. GemRIS releases gemcitabine gradually during the 7 day indwelling time. A second GemRIS is placed in the bladder on Study Day 21 and is removed on Study Day 28 which is the day of the TURBT. GemRIS is a passive, nonresorbable gemcitabine-releasing intravesicular (intravesical) system whose primary mode of action is the controlled release of gemcitabine into the bladder over a 7 day period.
The primary outcome measures are the number of participants with treatment emergent adverse events (TEAEs) coded with MedDRA and graded for severity with CTCAE v4.0. The secondary outcome measures are the number and percentage of participants who are tolerant of GemRIS indwelling on days 1-7 and 21-28. Plasma and urine levels of dFdC and dFdU are also measured. […] Cmax, plasma dFdU Analysis of Cmax (maximum concentration achieved over time) of diflourodeoxyuridine (dFdU) in plasma. [Time Frame: From Day 0 up to Day 28] • 6. Tmax, plasma dFdU. Analysis of Tmax (Day at which maximum concentration was achieved) of diflourodeoxyuridine (dFdU) in plasma. [Time Frame: From Day 0 up to Day 28] • 7. Cavg, plasma dFdU. Analysis of Descriptive statistics (e.g. sample size, mean and median, quartiles, minimum and maximum and box plots) of the concentration of diflourodeoxyuridine (dFdU) in plasma. [Time Frame: From Day 0 up to Day 28] • 8. Cmax, plasma dFdC. Analysis of Cmax (maximum concentration achieved over time) of gemcitabine (deoxydifluorocytidine hydrochloride dFdC) in plasma. [Time Frame: From Day 0 up to Day 28] • 9. Tmax, plasma dFdC. Analysis of Tmax (Day at which maximum concentration was achieved) of gemcitabine (deoxydifluorocytidine hydrochloride—dFdC) in plasma [Time Frame: From Day 0 up to Day 28] • 10. Cavg, plasma dFdC. Analysis of Descriptive statistics (e.g. sample size, mean and median, quartiles, minimum and maximum and box plots) of the concentration of gemcitabine (deoxydifluorocytidine hydrochloride—dFdC) in plasma [Time Frame: From Day 0 up to Day 28]. • 11. Cmax, urine dFdU (Arm 1 only). Analysis of Cmax (maximum concentration achieved over time) of diflourodeoxyuridine (dFdU) in urine. [Time Frame: From Day 0 up to Day 28] • 12. Tmax, urine dFdU (Arm 1 only). Analysis of Cmax (maximum concentration achieved over time) of diflourodeoxyuridine (dFdU) in urine. [Time Frame: From Day 0 up to Day 28] • 13. Tmax, urine dFdU (Arm 1 only). Analysis of Cmax (maximum concentration achieved over time) of diflourodeoxyuridine (dFdU) in urine. [Time Frame: From Day 0 up to Day 28] • 14. Cavg, urine dFdU (Arm 1 only). Analysis of Descriptive statistics (e.g. sample size, mean and median, quartiles, minimum and maximum and box plots) of the concentration of diflourodeoxyuridine (dFdU) in urine. [Time Frame: From Day 0 up to Day 28] • 15. Cmax, urine dFdC (Arm 1 only).
For data set [3] the following is noted: rat, in vivo.
Procedure: An orthotopic bladder cancer model was developed in rats to allow evaluation of the efficacy of continuous administration of gemcitabine to the bladder on treatment of a human bladder cancer cell line. Athymic nude rats were cannulated on day 0. The rats were injected with fluorescently labeled T24 human bladder cancer cells on day 3. On day 5 of the study, tumors were observable. Gemcitabine perfusion started on day 6 and continued until day 11. Three concentrations of gemcitabine were tested: 90 μg/ml, 180 μg/ml, and 350 μg/ml.
The subject of data set [4] is T24 human bladder cancer cells. The data set is described as follows: Orthotopic bladder cancer model in rats, continuous gemcitabine perfusion of the bladder. The format is in vivo, Athymic nude rats. An excerpt:
After day 11, the bladders were removed and subject to histological analysis.

Data set [5] has as its system NBT-II rat bladder tumor cells. The data set is described as follows: Syngeneic rat bladder tumor model, immune effects of continuous local gemcitabine. The format is in vivo, Wistar rats. The protocol: A syngeneic rat model was developed to assess treatment efficacy and immune effects of continuous local administration to the bladder. Wistar rats were cannulated on day 0 and injected with NBT-II rat bladder tumor cells on day 3. Tumors were allowed to grow for 5 days prior to the start of perfusion on day 8. On days 8-13 of the study gemcitabine was perfused at a concentration of 90 μg/ml or 180 μg/ml. The rats were euthanized on day 14. Samples from the tumor, spleen, blood and plasma were collected for histopathology and immunohistochemistry, flow cytometry, and cytokine profiling.
The level of activated CD8+ and CD4+ T cells were also measured in the tumor microenvironment compared to the level of CD+4 and CD8+ regulatory cells.
Plasma TGFβ and IL-10 levels were also measured following delivery of gemcitabine. […] Inhibition of TGFβ is known to impair Treg activation.

The nature of data set [6]: Pilot pharmacokinetic study, 14C-gemcitabine perfused via intra-urinary bladder cannula. It counts as in vivo, male Sprague-Dawley rats. To be noted: 3.85 mg/mL, 300 μL/hr. The protocol: A pilot study performed was using male Sprague-Dawley rats to determine the pharmacokinetics and pharmacodynamics properties of administering gemcitabine locally and continuously to the bladder. Rats were fitted with intra-urinary bladder cannula (IUBC) and radiolabeled ^14C-gemcitabine was perfused for 6 or 24 hours at a rate of 300 μL/hr at a concentration of 3.85 mg/mL of gemcitabine. The concentration of gemcitabine in various tissue layers were measured.

The nature of data set [7]: Minipig model, local continuous gemcitabine from an intravesical device for one week. It counts as in vivo, minipigs. To be noted: device removed at day 7; tissue levels estimated from gemcitabine and active metabolite in urine (FIG. 2). On the procedure: A minipig model was developed to investigate the effect of administering gemcitabine to the bladder locally and continuously using an intravesicular (intravesical) device. For this study, gemcitabine was continuously administered to minipigs for one week using an intravesicular (intravesical) device. The intravesicular (intravesical) device was removed at day 7. The concentration of gemcitabine and active metabolite was measured in the urine of the minipigs following removal of the device. Based upon the level of gemcitabine and active metabolite in the urine, the therapeutic gemcitabine levels in the bladder tissue were estimated.

Regarding `O=c1ccn(C2OC(CO)C(O)C2(F)F)c(=O)[nH]1` (stereo not shown) [dFdU, diflourodeoxyuridine], in data set [1], the urine concentrations entry is “comparable”. In addition, in data set [2], the “plasma concentrations of dFdU (quantifiable samples)” value was in the range of 104 to 284 ng/mL, the “plasma samples with low but quantifiable dFdU” value is reported as 10 of 55 and the urine levels entry is “measurable”.
On to `Nc1ccn([C@@H]2O[C@H](CO)[C@@H](O)C2(F)F)c(=O)n1` [gemcitabine, 2′,2′-difluorodeoxycytidine], for which, in data set [1], the urine concentrations result was “comparable”. The “levels of gemcitabine excreted in the urine” value in data set [1] (minipig study versus human phase IB trial (FIG. 9)) is recorded as “comparable”. Further, in data set [3], the hematuria result was “observed in all perfusion animals”; the “urine and blood parameters” value is recorded as “No major significant differences”. Moreover, the “tumor volume compared to untreated control (tumor size as net average intensity, FIG. 1)” value in data set [4] (90 μg/ml gemcitabine, continuous perfusion day 6 to day 11, five day study period) is “significant reduction in tumor volume”. Moreover, the “anti-tumor effect with increasing concentration” value in data set [4] (90 μg/ml, 180 μg/ml and 350 μg/ml gemcitabine perfusion) is on record as “increased with administration of increasing concentrations”. Besides, the “plasma TGFβ level compared to control animals” value in data set [5] (180 μg/mL gemcitabine (FIG. 6)) is on record as “decreased”. Further, the “plasma IL-10 level” value in data set [5] (180 μg/mL gemcitabine, versus untreated control rats (FIG. 7)) is “increased”. Besides, in data set [5] (gemcitabine perfusion days 8-13, versus untreated control rats (FIG. 5)), the “level of activated CD4+ and CD8+ cells in the spleen” value is reported as “increased”. Also, the “ratio of regulatory T cells to activated CD4+ and CD8+ T cells in the tumor microenvironment” value in data set [5] (perfusion 90 or 180 μg/mL, days 8-13 (FIG. 4)) is “decreased”. Also, the “distribution of radiolabel among bladder tissue layers” value in data set [6] (perfused for 6 or 24 hours) was “most concentrated in the adventitia and epithelium, followed by muscle and lamina propria”. In addition, the “penetration into bladder tissue layers” value in data set [6] (perfused for 6 or 24 hours (FIG. 3)) was “able to penetrate into deeper bladder tissues”. The “therapeutically relevant gemcitabine levels in bladder tissue after device removal” value in data set [7] is listed as “persisted well after the device was removed”. Besides, in data set [2] (human), the “plasma concentrations of gemcitabine” value is less than 100 ng/mL. Moreover, the urine levels result in data set [2] was “measurable”.
